Assay results taken from US11045435B2, “Methods for treating ocular diseases” (NATUREWISE BIOTECH & MEDICALS CORPORATION, priority 2016, dated 2021).

Columns and labels:
[1] = system: Blood-Retinal Barrier Breakdown in Streptozotocin-Induced Diabetic Macular Edema; assay: Evans blue leakage (blood-retinal barrier breakdown) in streptozotocin-induced diabetic macular edema; type: in vivo, Sprague-Dawley female rats
Method: After a 16-hour fast, Sprague-Dawley female rats weighing 200-220 g received a single 60 mg/kg intraperitoneal injection of Streptozotocin (STZ; Sigma-Aldrich, St. Louis, Md.) in 10 mM sodium citrate buffer (pH 4.5; Sigma-Aldrich, St. Louis, Md.). Control rats were fasted and received the buffer alone. Rats with blood glucose levels higher than 375 mg/dL 7 days after receiving STZ were considered to be diabetic. Body weight and blood glucose were detected every week. All experiments were performed in accordance with regulations specified by the Guide for the Care and Handling of Laboratory Animals (NIH Publication no. 85-23). For the treatments, rats were instilled with 0.5% and 1% COMPOUND I eye drops. Both eyes of all rats were instilled with 1 drop of ophthalmic solution 3 times a day for 6 weeks after diabetes production. Rats were treated with 0.5% and 1% COMPOUND I or vehicle solution eye drops 3 times a day for […] after glucose levels determination. Animal care and treatment were followed by the institutional guidelines. After induction of general anesthesia, the right jugular vein and right iliac artery were cannulated with 0.28- and 0.58-mm internal diameter polyethylene tubing, respectively, which were filled with heparinized saline (50 IU heparin/ml saline). Evans blue (Sigma-Aldrich, St. Louis, Md.) was injected through the jugular vein over 10 seconds at a dosage of 45 mg/kg. Immediately after Evans blue infusion, the rats turned visibly blue, confirming their uptake and distribution of the dye. Subsequently, at 15-minute intervals, 0.1 ml blood was drawn from the iliac artery for 2 hours to obtain the time-averaged plasma Evans blue concentration. After the dye had circulated for 120 minutes, the chest cavity was opened, and rats were perfused for 2 minutes via the left ventricle at 37° C. with 0.05 M, pH 3.5, citrate-buffered paraformaldehyde (Sigma-Aldrich, St. Louis, Md.). A pH of 3.5 was used to optimize binding of Evans blue to albumin and the perfusion solution was warmed to 37° C. to prevent vasoconstriction. Immediately after perfusion, both eyes were enucleated and dissected at the equator. The retinas were carefully dissected away under an operating microscope and thoroughly dried in vacuum equipment for 5 hours. The dry weight was used to normalize the quantitation of Evans blue leakage. Evans blue was extracted by incubating each retina in […] formamide (Sigma-Aldrich. St. Louis. Md.) for 18 hours at 70° C. […] The background-subtracted absorbance was determined by measuring each sample at both 620 nm, the absorbance maximum for Evans blue in formamide, and 740 nm, the absorbance minimum. The concentration of dye in the extracts was calculated from a standard curve of Evans blue in formamide. […]

ARPE-19 cells = assay: MTT viability / proliferation of ARPE-19 cells; type: cell-based, human; details: 72 h
Method: ARPE-19 cells were grown in DMEM/F12 medium supplemented with 10% FBS, 100 units/ml penicillin G, and 100 μg/ml streptomycin sulfate. HUVECs were grown in vascular cell basal medium supplemented with endothelial cell growth kit. Cells were incubated in a humidified incubator at 37° C. under 5% CO2 and 95% air.
MTT assay was used to measure the viability of ARPE-19 cells and HUVECs. 2×10^5 ARPE-19 cells or 5×10^4 HUVECs were seeded in 96-well plates ([…]) and allowed to grow overnight. Negative control was prepared by adding 100 μl medium without cells. The cells were then treated with fresh medium with COMPOUND I (0.03, 0.1, 0.3, 1, 3 and 10 μg/ml) and/or oxidants (NaIO3, H2O2, t-BHP and NaN3) for 12, 24, or 72 hours (200 μl/well). The vehicle control group was treated with vehicle. 20 μl MTT (5 mg/ml) was added to wells, and incubated for another 4 h. After incubation, the medium was discarded and 100 μl DMSO was added to solubilize formazan produced from MTT by the viable cells. Absorbance was measured at 570 nm using a microplate reader (Bio-Rad Laboratories, Inc., CA). Cells viability was calculated according to the following formula: Viability of cells (%)=(absorbance in tested sample−absorbance in negative control)/(absorbance in vehicle control−absorbance in negative control)×100%.

COc1ccc(COc2c(/C=C/C(=O)NO)ccc(OC)c2CC=C(C)C)cc1 [COMPOUND I]
Evans blue leakage, diabetic vehicle control group as 100% ([1]; 0.5% eye drops 3 times a day): 68% | Evans blue leakage, in words ([1]; 0.5% eye drops 3 times a day): partially | Evans blue leakage, diabetic vehicle control group as 100% ([1]; 1% eye drops 3 times a day): 56% | Evans blue leakage / BRB breakdown, in words ([1]; 1% eye drops 3 times a day, listed as BMX): completely restored | effect on cell growth (ARPE-19 cells; 0.03 μg/ml to 1 μg/ml): did not affect cell growth | inhibition at 10 µg/mL (ARPE-19 cells; Homo sapiens, ARPE-19, 10 μg/ml): 36%
